We go through 37 molecules from patent US11014884B2 (Global Blood Therapeutics, Inc., priority 2018, dated 2021).

SMILES strings stand for the structures.

T1 sequence (P69905 2-142 limits assumed): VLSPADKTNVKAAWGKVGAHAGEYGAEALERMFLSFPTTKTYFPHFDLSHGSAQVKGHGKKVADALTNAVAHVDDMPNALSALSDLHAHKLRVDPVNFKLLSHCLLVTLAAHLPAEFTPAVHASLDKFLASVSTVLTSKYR
T1 sequence (P68871 2-147 partner limits assumed): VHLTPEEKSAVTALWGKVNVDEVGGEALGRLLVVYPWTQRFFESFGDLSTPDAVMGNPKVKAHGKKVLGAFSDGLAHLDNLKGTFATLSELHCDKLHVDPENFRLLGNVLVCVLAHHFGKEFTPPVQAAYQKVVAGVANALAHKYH

The assay has as its target T1, hemoglobin (Homo sapiens, UniProt P69905).
T1 construct: from tissue; host or cells: whole blood (red blood cells)
The assay can be described thus: Whole blood assay: oxygen equilibrium curves (Hemox Analyzer), change in p50. It is filed as cell-based. As to conditions: whole blood 20% Hct (1 mM Hb), compound 1 mM, equimolar to hemoglobin, 1 h at 37° C. The procedure: Oxygen equilibrium curves (OECs) were collected using a TCS Hemox Analyzer (TCS Scientific Company, New Hope, Pa., USA) to measure changes in the binding affinity of 02 to Hb. Whole blood was incubated for 1 h at 37° C. with the indicated compounds in an equimolar ratio of hemoglobin to compound and diluted into TES (2-[[1,3-dihydroxy-2-(hydroxymethyl)propan-2-yl]amino]ethanesulfonic acid)/saline buffer prior to measurements. For example, for whole blood at 20% hematocrit [Hct], which corresponds to 1 mM Hb, a compound concentration of 1 mM was used (for example, for compounds 1-53), and the incubated sample diluted 50- to 100-fold. The concentration for compound 54 was 1.7 mM and in equimolar ratio to hemoglobin. The diluted samples were then oxygenated with compressed air within the Hemox Analyzer, and the OECs were collected during deoxygenation as previously described (Guarnone et al., Haematologica, 1995, 80, 426-430). p50 (partial pressure of 02 at which Hb is 50% saturated with 02) values were obtained using a non-linear regression analysis. Percentage change in p50 [Δp50(%)] was calculated as follows: Δp50(%)=[(p50 of control)−p50 with compound)/p50 control]×100.
As to `O=Cc1c(O)cccc1OC[C@@H]1CCCCCN1C(=O)c1cccc(O)c1C=O` (stereo in doubt) [Compound 38, 2-{2-[(2-formyl-3-hydroxyphenoxy)methyl]azepane-1-carbonyl}-6-hydroxybenzaldehyde], the “Delta-p50 (%)” value was determined as 33.8%.

For `CCOc1cccc(C(=O)N2CCOC[C@H]2COc2cccc(O)c2C=O)c1C=O` [Compound 3, 2-ethoxy-6-[(3S)-3-[(2-formyl-3-hydroxyphenoxy)methyl]morpholine-4-carbonyl]benzaldehyde], the “Delta-p50 (%)” value stood at 73.6%.

`O=Cc1c(O)cccc1OC[C@@H]1COCCN1C(=O)c1cccc(O)c1C=O` [Compound 4, (S)-2-((4-(2-formyl-3-hydroxybenzoyl)morpholin-3-yl)methoxy)-6-hydroxybenzaldehyde]: the “Delta-p50 (%)” value is on record as 30.9%.

On to `O=Cc1cccc(N2C(=O)CC[C@H]2COc2cccc(O)c2C=O)c1` [Compound 5, 2-{[(2S)-1-(3-formylphenyl)-5-oxopyrrolidin-2-yl]methoxy}-6-hydroxybenzaldehyde], for which the “Delta-p50 (%)” value is 79%.

As to `O=Cc1cc(-c2ncccc2COc2cccc(O)c2C=O)ccn1` [Compound 9, 3-[(2-formyl-3-hydroxyphenoxy)methyl]-[2,4′-bipyridine]-2′-carbaldehyde], the “Delta-p50 (%)” value is 36.1%.

`O=Cc1cccc(-c2ncccc2COc2cccc(O)c2C=O)n1` [Compound 10, 3′-[(2-formyl-3-hydroxyphenoxy)methyl]-[2,2′-bipyridine]-6-carbaldehyde]: the “Delta-p50 (%)” value amounted to 0.2%.

In the case of `O=Cc1nc(-c2ncccc2COc2cccc(O)c2C=O)cs1` [Compound 12, 4-{3-[(2-formyl-3-hydroxyphenoxy)methyl]pyridin-2-yl}-1,3-thiazole-2-carbaldehyde], the “Delta-p50 (%)” value is recorded as 2.9%.

As for `O=Cc1ccc(C(=O)N2CCCC[C@H]2COc2cccc(O)c2C=O)cc1` [Compound 13, 2-{[(2S)-1-(4-formylbenzoyl)piperidin-2-yl]methoxy}-6-hydroxybenzaldehyde], the “Delta-p50 (%)” value amounted to 45.4%.

Regarding `O=Cc1ncc(-c2ncccc2COc2cccc(O)c2C=O)o1` [Compound 14, 5-(3-((2-formyl-3-hydroxyphenoxy)methyl)pyridin-2-yl)oxazole-2-carbaldehyde], the “Delta-p50 (%)” value amounted to 17.8%.

Consider `COc1ccc(C=O)c(C(=O)N2CCCC[C@H]2COc2cccc(O)c2C=O)c1` [Compound 15, 2-[(2S)-2-[(2-formyl-3-hydroxyphenoxy)methyl]piperidine-1-carbonyl]-4-methoxybenzaldehyde], for which the “Delta-p50 (%)” value is on record as 19%.

Turning to `O=Cc1ccc(Cl)cc1C(=O)N1CCCC[C@H]1COc1cccc(O)c1C=O` [Compound 16, 4-chloro-2-[(2S)-2-[(2-formyl-3-hydroxyphenoxy)methyl]piperidine-1-carbonyl]benzaldehyde], the “Delta-p50 (%)” value came to 39%.

As for `O=Cc1ccccc1C(=O)N1CCCC[C@@H]1COc1cccc(O)c1C=O` [Compound 17, 2-{[(2R)-1-(2-formylbenzoyl)piperidin-2-yl]methoxy}-6-hydroxybenzaldehyde], the “Delta-p50 (%)” value is listed as 67%.

In the case of `O=Cc1cc(-c2ccccc2COc2cccc(O)c2C=O)co1` [Compound 18, 4-{2-[(2-formyl-3-hydroxyphenoxy)methyl]phenyl}furan-2-carbaldehyde], the “Delta-p50 (%)” value came to 17%.

Regarding `O=Cc1nc(-c2ncccc2COc2cccc(O)c2C=O)ccc1O` [Compound 19, 3′-[(2-formyl-3-hydroxyphenoxy)methyl]-5-hydroxy-[2,2′-bipyridine]-6-carbaldehyde], the “Delta-p50 (%)” value is given as 11%.

Consider `O=Cc1ccccc1C(=O)N1CCC[C@H]1COc1cccc(O)c1C=O` [Compound 20, 2-{[(2S)-1-(2-formylbenzoyl)pyrrolidin-2-yl]methoxy}-6-hydroxybenzaldehyde], for which the “Delta-p50 (%)” value turned out to be 32%.

Consider `O=Cc1ccccc1N1C(=O)CC[C@H]1COc1cccc(O)c1C=O` [Compound 21, 2-{[(2S)-1-(2-formylphenyl)-5-oxopyrrolidin-2-yl]methoxy}-6-hydroxybenzaldehyde], for which the “Delta-p50 (%)” value is 23%.

As to `O=Cc1cccc(C(=O)N2CCC[C@H](COc3cccc(O)c3C=O)C2)c1` [Compound 22, 2-{[(3S)-1-(3-formylbenzoyl)piperidin-3-yl]methoxy}-6-hydroxybenzaldehyde], the “Delta-p50 (%)” value is 68.5%.

As to `O=Cc1ccc(C(=O)N2CCC[C@H](COc3cccc(O)c3C=O)C2)cc1` [Compound 23, 2-{[(3S)-1-(4-formylbenzoyl)piperidin-3-yl]methoxy}-6-hydroxybenzaldehyde], the “Delta-p50 (%)” value is on record as 20%.

As to `O=Cc1cccc(-c2ccccc2COc2cccc(O)c2C=O)n1` [Compound 24, 6-{2-[(2-formyl-3-hydroxyphenoxy)methyl]phenyl}pyridine-2-carbaldehyde], the “Delta-p50 (%)” value is 11%.

As for `O=Cc1ncccc1C(=O)N1CCCC[C@H]1COc1cccc(O)c1C=O` [Compound 25, 3-[(2S)-2-[(2-formyl-3-hydroxyphenoxy)methyl]piperidine-1-carbonyl]pyridine-2-carbaldehyde], the “Delta-p50 (%)” value turned out to be 4%.

For `O=Cc1ccccc1C(=O)N1CCC[C@@H](COc2cccc(O)c2C=O)C1` [Compound 26, 2-{[(3R)-1-(2-formylbenzoyl)piperidin-3-yl]methoxy}-6-hydroxybenzaldehyde], the “Delta-p50 (%)” value is reported as 56%.

Take `O=Cc1cccc(C(=O)N2CCC[C@@H](COc3cccc(O)c3C=O)C2)c1` [Compound 27, 2-{[(3R)-1-(3-formylbenzoyl)piperidin-3-yl]methoxy}-6-hydroxybenzaldehyde]: the “Delta-p50 (%)” value is 74%.

With `O=Cc1ccc(C(=O)N2CCC[C@@H](COc3cccc(O)c3C=O)C2)cc1` [Compound 28, 2-{[(3R)-1-(4-formylbenzoyl)piperidin-3-yl]methoxy}-6-hydroxybenzaldehyde], the “Delta-p50 (%)” value came to 45%.

For `O=Cc1ccccc1C(=O)N1CCC[C@H](COc2cccc(O)c2C=O)C1` [Compound 29, 2-{[(3S)-1-(2-formylbenzoyl)piperidin-3-yl]methoxy}-6-hydroxybenzaldehyde], the “Delta-p50 (%)” value amounted to 82%.

As for `O=Cc1c(O)cccc1OC[C@@H]1CCCN1C(=O)c1cccc(O)c1C=O` [Compound 30, 2-[(2S)-2-[(2-formyl-3-hydroxyphenoxy)methyl]pyrrolidine-1-carbonyl]-6-hydroxybenzaldehyde], the “Delta-p50 (%)” value is on record as 45%.

Regarding `O=Cc1cccc(-c2cnccc2COc2cccc(O)c2C=O)n1` [Compound 31, 4′-[(2-formyl-3-hydroxyphenoxy)methyl]-[2,3′-bipyridine]-6-carbaldehyde], the “Delta-p50 (%)” value came out at 3.5%.

On to `O=Cc1cccc(-c2cccnc2COc2cccc(O)c2C=O)n1` [Compound 32, 2′-[(2-formyl-3-hydroxyphenoxy)methyl]-[2,3′-bipyridine]-6-carbaldehyde], for which the “Delta-p50 (%)” value is reported as 50%.

On to `COc1cccc(C(=O)N2CCCC[C@H]2COc2cccc(O)c2C=O)c1C=O` [Compound 33, 2-[(2S)-2-[(2-formyl-3-hydroxyphenoxy)methyl]piperidine-1-carbonyl]-6-methoxybenzaldehyde], for which the “Delta-p50 (%)” value came out at 84%.

In the case of `Cc1cccc(C(=O)N2CCCC[C@H]2COc2cccc(O)c2C=O)c1C=O` [Compound 34, 2-[(2S)-2-[(2-formyl-3-hydroxyphenoxy)methyl]piperidine-1-carbonyl]-6-methylbenzaldehyde], the “Delta-p50 (%)” value is listed as 78%.

As to `O=Cc1ccc(F)cc1C(=O)N1CCCC[C@H]1COc1cccc(O)c1C=O` [Compound 35, 4-fluoro-2-[(2S)-2-[(2-formyl-3-hydroxyphenoxy)methyl]piperidine-1-carbonyl]benzaldehyde], the “Delta-p50 (%)” value was found to be 70%.

Consider `O=Cc1ccccc1C(=O)N1CCOC[C@H]1COc1cccc(O)c1C=O` [Compound 36, 2-{[(3S)-4-(2-formylbenzoyl)morpholin-3-yl]methoxy}-6-hydroxybenzaldehyde], for which the “Delta-p50 (%)” value came out at 77%.

`O=Cc1ccccc1C(=O)N1CCCCC[C@H]1COc1cccc(O)c1C=O` [Compound 37]: the “Delta-p50 (%)” value is on record as 31.5%.

With `CCOc1cccc(C(=O)N2CCCC[C@H]2COc2cccc(O)c2C=O)c1C=O` [Compound 39, 2-ethoxy-6-[(2S)-2-[(2-formyl-3-hydroxyphenoxy)methyl]piperidine-1-carbonyl]benzaldehyde], the “Delta-p50 (%)” value is 79.5%.

With `CC(C)Oc1cccc(C(=O)N2CCCC[C@H]2COc2cccc(O)c2C=O)c1C=O` [Compound 40, 2-[(2S)-2-[(2-formyl-3-hydroxyphenoxy)methyl]piperidine-1-carbonyl]-6-(propan-2-yloxy)benzaldehyde], the “Delta-p50 (%)” value amounted to 72.5%.

With `Cc1ccc(-c2ncccc2COc2cccc(O)c2C=O)nc1C=O` [Compound 41, 3′-[(2-formyl-3-hydroxyphenoxy)methyl]-5-methyl-[2,2′-bipyridine]-6-carbaldehyde], the “Delta-p50 (%)” value is reported as 29.1%.

`O=Cc1cccc(-c2ccncc2COc2cccc(O)c2C=O)n1` [Compound 42, 3′-[(2-formyl-3-hydroxyphenoxy)methyl]-[2,4′-bipyridine]-6-carbaldehyde]: the “Delta-p50 (%)” value is listed as 17.4%.

Consider `CC1(C)C[C@@H](COc2cccc(O)c2C=O)N(C(=O)c2ccccc2C=O)C1` [Compound 43, 2-{[(2S)-1-(2-formylbenzoyl)-4,4-dimethylpyrrolidin-2-yl]methoxy}-6-hydroxybenzaldehyde], for which the “Delta-p50 (%)” value was 70%.
